From PMC11172478, “1,3,5-Triazine as Branching Connector for the Construction of Novel Antimicrobial Peptide Dendrimers: Synthesis and Biological Characterization” (International Journal of Molecular Sciences, 2024)
Starred links: 1 amine or outer side, 2 acyl side, 3 side chain; linkers in the order of their positions; H or OH if unused. Positions of bridges follow the written chain, without caps; N, C: chain ends. Residues, ends and D or L forms follow the SMILES beside them. Chains are numbered I, II in the order given. X1 = O=C(c1ccc(Oc2nc(NCCN[*:2])nc(NCCN[*:3])n2)cc1)[*:1]

Legend:
Format in all cases: cell-based
E. coli 208691 = assay: Intracellular accumulation of acridine orange; details: E. coli 208691, dendrimers at MIC, ½ MIC, ¼ MIC, AO 0.25 µg/mL, 30 min
Protocol: (§1) The assay was performed as previously described by Armengol et al. including control and clinical strains (E. coli 208691 and P. aeruginosa 666 SJD) previously studied by our group. Briefly, 96-well flat-bottomed microtiter plates (Guangzhou Jet Bio-Filtration Co., Ltd., Mianyang, China) were used. Overnight cultures were diluted in 1/4 Ringer’s solution to an OD520nm of 1.5, and 100 µL was added to the wells previously filled with 100 µL of Ringer’s solution. Acridine Orange (AO) was added to a final concentration of 0.25 µg/mL. The inoculated plates were then incubated for 30 min with shaking, after which the fluorescence was measured in a FLUOstar OPTIMA fluorescence microplate reader (BMG Labtech, Ortenberg, Germany).
(§2) To determine the uptake and accumulation of AO by bacteria, different scenarios were compared. First, bacteria were examined in the presence of PAβN at 20 µg/mL, and then in the presence of different concentrations of the dendrimers at (MIC, ½ MIC, ¼ MIC). The results in each condition were expressed as the percentage increase in fluorescence with respect to the control.

P. aeruginosa ATCC 27853 = assay: Intracellular accumulation of acridine orange; details: P. aeruginosa ATCC 27853, dendrimers at MIC
Protocol: as §1, §2

MDR E. coli = details: 24 h
Protocol: (§3) E. coli ATCC 25922, P. aeruginosa ATCC 27853, S. aureus ATCC 29213, P. aeruginosa 666 SJD (ciprofloxacin-resistant), P. aeruginosa P12, P13, P15, P16 and P17 (MDR isolates) and E. coli 7987, 5545, 8248, 13974, 7259 and 208691 (MDR isolates) from our own collection were included in the present study.
(§4) The antimicrobial activity of the dendrimers was evaluated against E. coli ATCC 25922, P. aeruginosa ATCC 27853 and S. aureus ATCC 29213 strains. The MIC values were determined by the broth microdilution method. Briefly, the different strains were grown in Muller Hinton broth cation adjusted (MHBCA) medium overnight at 37 °C with shaking at 200 rpm. The bacterial cultures were then adjusted to OD625nm of 0.08–0.1, and 5 μL of each diluted suspension was added to 96-well plates previously filled with MHBCA and serially diluted peptides. Plates were incubated for 24 h at 37 °C. Finally, the MIC was determined macroscopically, based on the visual turbidity of the wells.

MDR P. aeruginosa = details: 24 h
Protocol: as §3, §4

Row | SMILES | AO accumulation (in words) (E. coli 208691) | AO accumulation (in words) (P. aeruginosa ATCC 27853) | MIC values in MDR E. coli (span over isolates) (MDR E. coli) [mg/L] | MIC values in MDR P. aeruginosa (span over isolates) (MDR P. aeruginosa) [mg/L]
1 | CC(C)C[C@H](NC(=O)c1ccc(Oc2nc(NCCNC(=O)[C@H](CCCCN)NC(=O)[C@H](CC(C)C)NC(=O)[C@H](CCCCN)NC(=O)[C@H](CC(C)C)NC(=O)[C@H](CCCCN)NC(=O)[C@@H](N)CC(C)C)nc(NCCNC(=O)[C@H](CCCCN)NC(=O)[C@H](CC(C)C)NC(=O)[C@H](CCCCN)NC(=O)[C@H](CC(C)C)NC(=O)[C@H](CCCCN)NC(=O)[C@@H](N)CC(C)C)n2)cc1)C(=O)N[C@@H](CCCCN)C(=O)N[C@@H](CC(C)C)C(=O)N[C@@H](CCCCN)C(=O)N[C@@H](CC(C)C)C(=O)N[C@@H](CCCCN)C(N)=O [Dendrimer 1, H-[(LK)3]2-(EDA)2-TA-PHBA-(LK)3-NH2] (I: LKLKLK-NH2 / II: H-LKLKLK / III: H-LKLKLK; linker I:N-II:C-III:C via X1) | marked increase in AO accumulation | slight increase in AO accumulation | – | –
2 | CC(C)C[C@H](NC(=O)[C@H](CCCCN)NC(=O)[C@H](CC(C)C)NC(=O)[C@H](CCCCN)NC(=O)[C@H](CC(C)C)Nc1nc(NCCNC(=O)[C@H](CCCCN)NC(=O)[C@H](CC(C)C)NC(=O)[C@H](CCCCN)NC(=O)[C@H](CC(C)C)NC(=O)[C@H](CCCCN)NC(=O)[C@@H](N)CC(C)C)nc(NCCNC(=O)[C@H](CCCCN)NC(=O)[C@H](CC(C)C)NC(=O)[C@H](CCCCN)NC(=O)[C@H](CC(C)C)NC(=O)[C@H](CCCCN)NC(=O)[C@@H](N)CC(C)C)n1)C(=O)N[C@@H](CCCCN)C(N)=O [Dendrimer 2, H-[(LK)3-EDA]2-TA-(LK)3-NH2] | – | – | 2 to 8 | 16 to 32
